Results published in patent US20050059731A1, “Erythrosin-based antimicrobial photodynamic therapy compound and its use” (CeramOptec Industries, Inc., priority 2003, published 2005).

System: Streptococcus mutans DSM6178 (ATCC 35668)
Assay: Photodynamic inactivation of bacterial cell suspensions of Streptococcus mutans by Erythrosin B gel
Format: cell-based
Conditions: in saliva; general statement
Method: Photodynamic Inactivation of Bacterial Cell Suspensions of Streptococcus mutans by Erythrosin B: The organism used in this study was Streptococcus mutans DSM6178 (ATCC 35668). Gram-positive Streptococcus spec. are jointly responsible for the development of oral caries. Streptococcus mutans cells were grown aerobically overnight at 37° C. in Tryptic Soy Broth (Merck KGaA Darmstadt, Germany). Cells were harvested by centrifugation and resuspended in sterile phosphate-buffered saline (PBS) supplemented with 10% sterile filtered natural saliva. The final OD (Optical Density) at 600 nm, for a 1 cm path length, in all cases was 0.05. About 0.5 ml of an Erythrosin B gel of hydroxyethyl cellulose (1 mM, 2 mM, 3 mM and 8 mM Erythrosin B) were placed at the bottom of a tube. The gel was layered with 0.5 ml of the bacterial suspension and exposed for 1, 3 or 5 minutes, respectively under slight shaking at room temperature. After exposure 250 μl of the suspension was placed in a new tube, the tube was centrifuged, the supernatant was removed and the cell pellet was resuspended in 250 μl of PBS+10% natural saliva (sterile filtered). […] The fluence rate for these settings was about 0.1 W/cm^2 (measured with Optometer P-9710, Gigahertz-Optik GmbH, Puchheim, Germany). […]

Structure (SMILES): O.O=C([O-])c1ccccc1-c1c2cc(I)c(=O)c(I)c-2oc2c(I)c([O-])c(I)cc12.[Na+].[Na+] [Erythrosin B]
- photosensitizing effectiveness against Gram-positive bacteria: effective photosensitizing substance against Gram-positive bacteria in saliva
